SMILES strings stand for the structures.

Here are results for 2 molecules from publication PMC6465099 (Clinical Pharmacology and Therapeutics, 2018).

Data set [1] can be described thus: Clinical crossover study: iohexol clearance. The conditions noted are these: for clearance: human, plasma, intravenous. The class given is in vivo, human.
For data set [2], the target named is T1, MATE1 (Homo sapiens, UniProt Q96FL8).
T1 sequence (Q96FL8 1-570): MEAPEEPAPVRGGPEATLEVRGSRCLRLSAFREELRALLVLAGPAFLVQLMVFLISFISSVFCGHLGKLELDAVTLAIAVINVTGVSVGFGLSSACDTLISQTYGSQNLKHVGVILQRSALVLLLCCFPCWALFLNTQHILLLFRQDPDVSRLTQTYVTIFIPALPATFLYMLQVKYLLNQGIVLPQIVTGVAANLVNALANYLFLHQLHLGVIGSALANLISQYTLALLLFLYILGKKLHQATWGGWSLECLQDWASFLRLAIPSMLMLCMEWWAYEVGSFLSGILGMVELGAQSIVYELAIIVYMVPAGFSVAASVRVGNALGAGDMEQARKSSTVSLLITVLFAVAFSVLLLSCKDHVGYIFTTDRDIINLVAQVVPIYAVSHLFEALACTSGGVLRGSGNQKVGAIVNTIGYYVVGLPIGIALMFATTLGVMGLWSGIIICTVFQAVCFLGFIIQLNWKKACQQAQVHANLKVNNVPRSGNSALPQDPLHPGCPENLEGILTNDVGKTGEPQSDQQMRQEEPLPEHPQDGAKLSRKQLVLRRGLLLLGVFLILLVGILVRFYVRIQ
As to the kind of experiment: Inhibition of MATE1-mediated. In kind it is cell-based. As to conditions: sum of unbound Cmax/IC50 of abemaciclib, M2 and M20.

The nature of data set [3]: Clinical study: renal injury biomarkers. In kind it is in vivo, human.
The conditions of data set [4]: patients with cancer and healthy subjects; cited from earlier work.
Data set [5] deals with T2, OCT2 (Homo sapiens, UniProt O15244).
T2 sequence (O15244 1-555): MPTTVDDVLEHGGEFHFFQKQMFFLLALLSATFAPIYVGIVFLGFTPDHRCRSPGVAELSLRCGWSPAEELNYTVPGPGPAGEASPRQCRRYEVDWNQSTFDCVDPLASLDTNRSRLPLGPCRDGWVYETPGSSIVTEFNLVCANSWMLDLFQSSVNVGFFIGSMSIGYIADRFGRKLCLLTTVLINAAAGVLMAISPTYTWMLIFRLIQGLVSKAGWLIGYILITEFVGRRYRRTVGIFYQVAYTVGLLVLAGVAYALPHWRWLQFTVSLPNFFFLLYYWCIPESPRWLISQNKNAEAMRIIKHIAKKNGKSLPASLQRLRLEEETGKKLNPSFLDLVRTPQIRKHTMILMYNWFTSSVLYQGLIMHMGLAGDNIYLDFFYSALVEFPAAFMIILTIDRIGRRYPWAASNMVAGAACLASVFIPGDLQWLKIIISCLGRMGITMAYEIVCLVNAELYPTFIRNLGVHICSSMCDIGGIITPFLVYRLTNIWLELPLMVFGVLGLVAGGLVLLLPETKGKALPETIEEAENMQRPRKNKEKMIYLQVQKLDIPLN
As to the kind of experiment: Inhibition of OCT2-mediated. In kind it is cell-based. As to conditions: sum of unbound Cmax/IC50 of abemaciclib, M2 and M20.

For data set [6], the target named is MATE2-K (Homo sapiens, UniProt Q86VL8). As to the kind of experiment: Inhibition of MATE2-K-mediated. The class given is cell-based. The conditions noted are these: sum of unbound Cmax/IC50 of abemaciclib, M2 and M20.
A short description of data set [7]: Clinical study: serum creatinine and estimated GFR after abemaciclib. In kind it is in vivo, human.

MATE2-K, sequence (Q86VL8 1-566 isoform Q86VL8-3): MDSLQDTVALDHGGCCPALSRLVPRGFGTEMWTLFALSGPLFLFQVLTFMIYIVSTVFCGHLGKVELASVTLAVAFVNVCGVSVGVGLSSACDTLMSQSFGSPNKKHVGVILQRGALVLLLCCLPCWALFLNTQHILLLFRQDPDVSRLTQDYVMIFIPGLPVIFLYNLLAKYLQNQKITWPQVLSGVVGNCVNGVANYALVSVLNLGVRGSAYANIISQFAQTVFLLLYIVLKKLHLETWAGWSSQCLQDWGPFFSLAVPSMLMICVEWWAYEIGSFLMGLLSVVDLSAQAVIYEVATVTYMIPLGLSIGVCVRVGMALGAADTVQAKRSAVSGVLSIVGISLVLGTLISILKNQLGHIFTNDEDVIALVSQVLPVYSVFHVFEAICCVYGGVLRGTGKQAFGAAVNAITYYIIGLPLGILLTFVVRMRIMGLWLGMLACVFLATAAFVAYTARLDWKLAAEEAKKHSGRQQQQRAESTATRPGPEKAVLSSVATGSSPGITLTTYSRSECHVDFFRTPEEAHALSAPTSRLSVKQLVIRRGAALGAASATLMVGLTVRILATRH

As for `CCN1CCN(Cc2ccc(Nc3ncc(F)c(-c4cc(F)c5nc(C)n(C(C)C)c5c4)n3)nc2)CC1` [Abemaciclib], the “Effect of coadministration on iohexol PK” value in data set [1] (400 mg abemaciclib with iohexol) is “did not affect”. For the same molecule, the “Combined DDI index, MATE1” value in data set [2] worked out at 0.13. In addition, in data set [3] (abemaciclib with either metformin or iohexol), the “Trends in serum cystatin-C or NGAL indicative of renal injury” value is listed as “no trends”. The “Creatinine-normalized urinary concentrations of NGAL and KIM-1” value in data set [3] (following abemaciclib dosing) is “No notable change”. The “Reversible increase in serum creatinine over baseline” value in data set [4] is reported as 15–40%. Further, the “Combined DDI index, OCT2” value in data set [5] was determined as 0.03. In addition, in data set [6], the “Combined DDI index, MATE2-K” value worked out at 0.06. Besides, the “eGFR (CKD-EPI equation using SCr)” value in data set [7] (abemaciclib in combination with iohexol) is 53.6 mL/minute/1.73 m^2; in data set [7] (abemaciclib in combination with metformin) it was 57.2 mL/minute/1.73 m^2. Further, in data set [7] (abemaciclib vs. placebo periods), the “eGFR calculated using serum cystatin-C” value was “did not change”. Moreover, the “Mean increase in SCr concentration” value in data set [7] (between 10 and 12 hours postdose, 400 mg abemaciclib, healthy subjects) is 35.7 to 44.6 µmol/L. Also, the “Reversible increase in SCr expected in patients” value in data set [7] (patients dosed with abemaciclib, suggested by the findings) is 10–40%. For the same molecule, the “Time of peak SCr elevation” value in data set [7] (post abemaciclib dose) was 12 h.
As usually defined, the clearance is a measure of how efficiently the substance is removed, as volume per time. Higher therefore signals efficient removal. `CC(=O)N(CC(O)CO)c1c(I)c(C(=O)NCC(O)CO)c(I)c(C(=O)NCC(O)CO)c1I` (stereo not drawn) [iohexol]: the clearance is 85.6 mL/min in data set [1] and 89 mL/min in data set [1] (3235 mg).
